Results as given in ChEMBL document CHEMBL1201862, “PubChem BioAssay data set” (2004).
Active and inactive are the calls of the source.

Experiments:
[1] = biological target: T1, Aminopeptidase N (Plasmodium falciparum FcB1/Columbia, UniProt O96935); assay: P. falciparum M1AAP inhibitors, biochemical, fluorogenic H-Leu-NHMec substrate, 1536-well (AID 1445); set-up: species or system Plasmodium falciparum 3D7, 3D7
T1 sequence (O96935 whole entry): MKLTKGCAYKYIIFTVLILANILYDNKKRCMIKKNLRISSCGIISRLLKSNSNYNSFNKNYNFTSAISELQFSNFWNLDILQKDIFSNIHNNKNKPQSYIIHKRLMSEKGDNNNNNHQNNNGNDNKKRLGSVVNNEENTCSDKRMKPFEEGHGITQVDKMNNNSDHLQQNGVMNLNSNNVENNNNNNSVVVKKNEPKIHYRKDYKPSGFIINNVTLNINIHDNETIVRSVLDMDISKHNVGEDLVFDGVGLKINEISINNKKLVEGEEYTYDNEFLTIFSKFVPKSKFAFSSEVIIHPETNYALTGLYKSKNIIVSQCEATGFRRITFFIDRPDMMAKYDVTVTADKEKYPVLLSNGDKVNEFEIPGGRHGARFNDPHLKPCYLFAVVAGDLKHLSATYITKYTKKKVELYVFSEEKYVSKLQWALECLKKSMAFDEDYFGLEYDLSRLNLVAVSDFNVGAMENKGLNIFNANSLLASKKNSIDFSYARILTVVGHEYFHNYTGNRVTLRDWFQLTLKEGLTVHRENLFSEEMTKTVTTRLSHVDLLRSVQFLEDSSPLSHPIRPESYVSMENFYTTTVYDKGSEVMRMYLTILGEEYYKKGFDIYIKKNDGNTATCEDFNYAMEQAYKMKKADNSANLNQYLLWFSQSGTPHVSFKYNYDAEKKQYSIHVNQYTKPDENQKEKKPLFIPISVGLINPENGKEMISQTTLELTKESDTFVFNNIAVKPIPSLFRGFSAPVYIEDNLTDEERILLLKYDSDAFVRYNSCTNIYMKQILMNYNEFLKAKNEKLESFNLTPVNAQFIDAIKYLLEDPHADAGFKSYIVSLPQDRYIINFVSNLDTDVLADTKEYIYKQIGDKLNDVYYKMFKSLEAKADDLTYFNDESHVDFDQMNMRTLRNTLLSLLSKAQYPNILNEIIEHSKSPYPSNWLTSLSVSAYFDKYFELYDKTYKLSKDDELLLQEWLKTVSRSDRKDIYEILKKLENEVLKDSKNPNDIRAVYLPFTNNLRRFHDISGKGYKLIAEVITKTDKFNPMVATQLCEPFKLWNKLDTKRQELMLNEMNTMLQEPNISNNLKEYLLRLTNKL

[2] = biological target: T2, Short transient receptor potential channel 4 (Mus musculus, UniProt Q9QUQ5); assay: mouse TRPC4 channel inhibitors, dose response, cell-based, HEK293 TRPC4/mu-opioid, Fluo-4 calcium (AID 434942); format: functional;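 also: potency of inhibitors blocking the TRPC4 calcium response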
T2 sequence (Q9QUQ5 whole entry): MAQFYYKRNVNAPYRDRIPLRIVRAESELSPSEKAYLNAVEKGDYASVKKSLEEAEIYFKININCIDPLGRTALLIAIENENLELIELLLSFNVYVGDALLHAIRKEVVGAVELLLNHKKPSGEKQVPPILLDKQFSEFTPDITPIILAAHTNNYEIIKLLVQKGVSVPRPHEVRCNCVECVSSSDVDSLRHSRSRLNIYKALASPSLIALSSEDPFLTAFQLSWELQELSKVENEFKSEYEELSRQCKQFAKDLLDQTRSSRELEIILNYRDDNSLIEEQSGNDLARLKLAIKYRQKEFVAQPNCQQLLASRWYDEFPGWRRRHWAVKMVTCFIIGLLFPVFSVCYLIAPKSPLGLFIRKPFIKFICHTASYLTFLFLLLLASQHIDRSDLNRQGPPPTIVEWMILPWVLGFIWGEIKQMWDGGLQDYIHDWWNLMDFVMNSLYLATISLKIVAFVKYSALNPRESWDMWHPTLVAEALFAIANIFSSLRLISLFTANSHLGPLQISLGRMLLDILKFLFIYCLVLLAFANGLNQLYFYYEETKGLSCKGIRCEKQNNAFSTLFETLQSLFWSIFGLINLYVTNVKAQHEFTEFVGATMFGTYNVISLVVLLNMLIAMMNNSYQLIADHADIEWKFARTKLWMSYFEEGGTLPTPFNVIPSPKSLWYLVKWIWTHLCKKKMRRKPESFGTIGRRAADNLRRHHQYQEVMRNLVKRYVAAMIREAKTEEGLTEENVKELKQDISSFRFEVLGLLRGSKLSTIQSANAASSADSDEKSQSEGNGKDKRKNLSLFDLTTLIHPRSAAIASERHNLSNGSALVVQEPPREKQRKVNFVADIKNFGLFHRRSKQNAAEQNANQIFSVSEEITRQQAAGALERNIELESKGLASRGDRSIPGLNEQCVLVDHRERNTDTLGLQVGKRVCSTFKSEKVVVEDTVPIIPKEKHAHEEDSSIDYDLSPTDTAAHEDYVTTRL

[3] = biological target: FAD-linked sulfhydryl oxidase ALR (Homo sapiens, UniProt P55789); assay: inhibitors of human ALR sulfhydryl oxidase, dose response, biochemical, H2O2 detection, luminescence, cherry-pick (AID 493248)
[4] = biological target: T3, Heat shock factor protein 1 (Mus musculus, UniProt P38532); assay: inhibition of MG132-induced HSE-luciferase signal, confirmation, cell-based, NIH3T3, luminescence, dose retest (AID 2382); format: functional;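 also: NIH3T3 fibroblasts with HSF1-driven luciferase reporter stressed by proteasome inhibitor MG132; luminescence from HSF1-driven luciferase expression after 8 hours of MG132 stress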
T3 sequence (P38532 whole entry): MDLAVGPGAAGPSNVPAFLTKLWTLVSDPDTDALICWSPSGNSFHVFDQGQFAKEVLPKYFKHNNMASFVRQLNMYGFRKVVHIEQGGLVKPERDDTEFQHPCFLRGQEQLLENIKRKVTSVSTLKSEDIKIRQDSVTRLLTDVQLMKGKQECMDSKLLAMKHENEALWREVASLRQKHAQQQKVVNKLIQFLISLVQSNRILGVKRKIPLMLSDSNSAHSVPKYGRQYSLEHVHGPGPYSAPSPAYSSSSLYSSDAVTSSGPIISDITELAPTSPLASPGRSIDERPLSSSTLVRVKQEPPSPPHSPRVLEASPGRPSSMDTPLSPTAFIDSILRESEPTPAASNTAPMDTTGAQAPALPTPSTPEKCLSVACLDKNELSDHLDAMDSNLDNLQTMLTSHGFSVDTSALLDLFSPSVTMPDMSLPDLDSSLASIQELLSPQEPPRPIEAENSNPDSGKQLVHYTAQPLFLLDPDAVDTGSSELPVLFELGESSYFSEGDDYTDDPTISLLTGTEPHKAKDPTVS

[5] = biological target: T4, High affinity choline transporter 1 (Homo sapiens, UniProt Q9GZV3); assay: CHT inhibitors, dose response, cell-based, 5-point CRC, membrane potential dye (AID 504840); format: functional
T4 sequence (Q9GZV3 whole entry): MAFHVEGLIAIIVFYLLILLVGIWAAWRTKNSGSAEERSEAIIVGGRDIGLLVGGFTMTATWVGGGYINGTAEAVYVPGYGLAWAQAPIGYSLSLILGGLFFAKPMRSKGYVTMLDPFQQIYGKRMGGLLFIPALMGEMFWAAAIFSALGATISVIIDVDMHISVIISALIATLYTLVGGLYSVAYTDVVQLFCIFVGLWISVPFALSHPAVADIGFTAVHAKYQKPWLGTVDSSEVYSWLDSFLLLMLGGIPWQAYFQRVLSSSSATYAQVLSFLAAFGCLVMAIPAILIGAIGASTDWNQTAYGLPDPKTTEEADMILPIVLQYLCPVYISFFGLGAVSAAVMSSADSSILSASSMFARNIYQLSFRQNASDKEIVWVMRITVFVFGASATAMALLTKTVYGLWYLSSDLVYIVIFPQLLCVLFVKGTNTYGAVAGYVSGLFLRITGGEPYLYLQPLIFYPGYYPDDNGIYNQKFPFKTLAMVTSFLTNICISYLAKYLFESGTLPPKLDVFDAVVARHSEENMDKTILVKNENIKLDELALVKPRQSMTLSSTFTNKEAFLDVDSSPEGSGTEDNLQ

[6] = cells; format: functional, cell-based
[7] = cells; format: functional, cell-based; remark: listed apart in the source
[8] = biological target: Genome polyprotein (dengue virus type 2, UniProt P29990); assay: Dengue-2 NS5 methyltransferase inhibitors, primary screen, biochemical, confirmation dose response (AID 588689); format: functional
Genome polyprotein, sequence (P29990 2492-3391 limits assumed): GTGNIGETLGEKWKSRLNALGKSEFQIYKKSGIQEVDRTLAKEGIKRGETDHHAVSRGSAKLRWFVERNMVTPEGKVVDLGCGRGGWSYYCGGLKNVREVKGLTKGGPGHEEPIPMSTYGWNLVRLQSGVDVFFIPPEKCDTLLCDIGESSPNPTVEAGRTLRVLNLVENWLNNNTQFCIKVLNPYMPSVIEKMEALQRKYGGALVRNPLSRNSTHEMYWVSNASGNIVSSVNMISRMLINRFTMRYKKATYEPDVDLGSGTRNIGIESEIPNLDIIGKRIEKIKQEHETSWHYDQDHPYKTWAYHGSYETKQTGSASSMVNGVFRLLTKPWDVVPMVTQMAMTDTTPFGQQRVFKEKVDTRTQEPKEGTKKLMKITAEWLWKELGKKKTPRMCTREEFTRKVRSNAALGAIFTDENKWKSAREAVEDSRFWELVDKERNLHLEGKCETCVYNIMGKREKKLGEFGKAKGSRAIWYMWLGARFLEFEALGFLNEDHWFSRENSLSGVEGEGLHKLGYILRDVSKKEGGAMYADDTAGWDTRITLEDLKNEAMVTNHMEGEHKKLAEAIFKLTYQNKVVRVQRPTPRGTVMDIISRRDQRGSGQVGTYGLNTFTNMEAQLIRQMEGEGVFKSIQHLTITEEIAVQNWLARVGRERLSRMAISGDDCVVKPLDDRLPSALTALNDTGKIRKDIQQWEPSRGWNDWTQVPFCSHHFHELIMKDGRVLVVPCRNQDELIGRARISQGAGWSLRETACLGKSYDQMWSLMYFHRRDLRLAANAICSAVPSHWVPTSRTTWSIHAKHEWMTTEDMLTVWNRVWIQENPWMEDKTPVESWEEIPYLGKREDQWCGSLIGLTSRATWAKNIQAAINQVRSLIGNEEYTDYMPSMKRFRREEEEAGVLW

FAD-linked sulfhydryl oxidase ALR, sequence (P55789 whole entry): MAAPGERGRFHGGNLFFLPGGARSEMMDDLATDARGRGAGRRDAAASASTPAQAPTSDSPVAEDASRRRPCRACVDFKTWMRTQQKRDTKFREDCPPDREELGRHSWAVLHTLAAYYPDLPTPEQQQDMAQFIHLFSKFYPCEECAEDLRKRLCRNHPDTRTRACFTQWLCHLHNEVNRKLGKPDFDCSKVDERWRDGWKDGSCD

**Q.** For Cc1c(N2C(=O)C(O)=C(C(=O)c3ccc(Br)cc3)C2c2cccnc2)c(=O)n(-c2ccccc2)n1C (stereo not given), which IC50 [1] is on record?
**A.** 38.1 µM (active)

**Q.** With CCC1=Nc2cc(C(=O)N3CCC4(CC3)OCCO4)ccc2Sc2ccc(C)cc21 as the molecule, how does the EC50 [2] read?
**A.** 7.5 µM (active)

**Q.** Which EC50 [2] does the source give for c1ccc(Nc2[nH]nnc2-c2ccccc2)cc1 here?
**A.** 1.88 µM (active)

**Q.** What about the AC50 [3] of the same molecule?
**A.** > 100 µM (inactive)

**Q.** With O=C(O)c1cccc(NC(=S)NC(NC(=O)c2ccco2)C(Cl)(Cl)Cl)c1 (stereo not given) as the molecule, how does the IC50 [1] read?
**A.** 39.9 µM (active)

**Q.** What about the EC50 [4] of the same molecule?
**A.** > 195 µM (not active)

**Q.** Which EC50 [2] does the source give for Cc1cc(OCC(=O)Nc2ccc(N3CCN(C)CC3)cc2)ccc1Cl here?
**A.** 2.66 µM (active)

**Q.** With CC1CCN(S(=O)(=O)c2ccc3c(c2)N(CC(=O)NCCN2C(C)CCCC2C)C(=O)CS3)CC1 (stereo not given) as the molecule, how does the IC50 [5] read?
**A.** 11.3 µM (active)

**Q.** Which IC50 [5] does the source give for COc1cccc(OC)c1OCCCCCc1c(C)n[nH]c1C here?
**A.** 9.12 µM (active)

**Q.** What does the source list for O=C(CCc1ccccc1)Nc1ccnn1C1CCN(C/C=C/c2ccccc2)CC1?
**A.** EC50 [6]: > 350 µM (not active); EC50 [7]: > 350 µM (not active); EC50 [2]: 1.5 µM (active)

**Q.** With CC(C)=CCN1CCN(Cc2cn(C(C)C)c3ccccc23)CC1CCO (stereo not given) as the molecule, how does the IC50 [5] read?
**A.** 13.2 µM (active)

**Q.** For CCOC(=O)c1sc(NC(=O)CCN2CCN(C)CC2)c(C(=O)OCC)c1C, which IC50 [5] is on record?
**A.** 14.5 µM (active)

**Q.** Which IC50 [1] does the source give for CCCCCCC(=O)N(O)C1CC(=O)N(c2ccccc2)C1=O (stereo not given) here?
**A.** 66.5 µM (active)

**Q.** Which EC50 [2] does the source give for CN1CCN(c2ccc(NC(=O)c3ccc(Br)o3)cc2)CC1 here?
**A.** 0.841 µM (active)

**Q.** Which IC50 [1] does the source give for COc1ccc(OCC(=O)N2CCN(C(=O)COc3ccc(Br)cc3)CC2)cc1 here?
**A.** 59.2 µM (active)

**Q.** With O=C(O)C(c1ccccc1)N1C(=O)/C(=C/c2cccs2)SC1=S (stereo not given) as the molecule, how does the IC50 [8] read?
**A.** 46.9 µM (active)

**Q.** What about the IC50 [1] of the same molecule?
**A.** 57.7 µM (active)

**Q.** With S=C(NCCCN1CCOCC1)Nc1cccc(-c2nnc3n2CCCCC3)c1 as the molecule, how does the IC50 [5] read?
**A.** 13.9 µM (active)
